Values of other authors in patent US20050114109A1, “STRUCTURE OF INTEGRIN ALPHA V-beta 3 EXTRACELLULAR DOMAIN COMPLEXED WITH LIGAND” (priority 2002, published 2005).

Tested on: native or extracellular αVβ3
Conditions: physiologic ligands, from Mehta et al. 1998 and Dechantsreiter et al. 1999, read-out: IC50, competes with binding of physiologic ligands to αVβ3

native or extracellular αVβ3, sequence (P06756 31-889 limits assumed): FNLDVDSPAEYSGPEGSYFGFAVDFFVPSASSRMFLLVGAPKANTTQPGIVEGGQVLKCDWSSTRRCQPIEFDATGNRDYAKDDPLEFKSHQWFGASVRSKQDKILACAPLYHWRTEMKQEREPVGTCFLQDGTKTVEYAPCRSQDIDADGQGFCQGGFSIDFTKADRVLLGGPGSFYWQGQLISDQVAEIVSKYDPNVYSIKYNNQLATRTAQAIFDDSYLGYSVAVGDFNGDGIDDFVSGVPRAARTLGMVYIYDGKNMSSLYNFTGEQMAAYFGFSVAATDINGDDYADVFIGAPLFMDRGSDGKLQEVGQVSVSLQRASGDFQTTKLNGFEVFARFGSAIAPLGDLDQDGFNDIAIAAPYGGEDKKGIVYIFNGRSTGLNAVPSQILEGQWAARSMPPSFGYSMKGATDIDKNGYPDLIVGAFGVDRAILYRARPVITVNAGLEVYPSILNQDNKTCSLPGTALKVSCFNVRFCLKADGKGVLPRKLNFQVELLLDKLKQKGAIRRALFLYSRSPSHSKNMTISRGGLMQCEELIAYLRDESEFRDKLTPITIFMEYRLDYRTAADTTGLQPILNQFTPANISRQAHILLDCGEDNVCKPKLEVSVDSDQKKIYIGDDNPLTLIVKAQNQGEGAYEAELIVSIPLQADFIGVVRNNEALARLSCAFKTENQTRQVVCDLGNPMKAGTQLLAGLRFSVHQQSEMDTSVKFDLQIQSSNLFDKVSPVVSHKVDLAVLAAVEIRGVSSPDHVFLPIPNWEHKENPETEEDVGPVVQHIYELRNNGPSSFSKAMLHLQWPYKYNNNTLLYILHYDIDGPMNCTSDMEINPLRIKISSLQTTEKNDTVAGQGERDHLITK
native or extracellular αVβ3, sequence (P06756 891-987 limits assumed): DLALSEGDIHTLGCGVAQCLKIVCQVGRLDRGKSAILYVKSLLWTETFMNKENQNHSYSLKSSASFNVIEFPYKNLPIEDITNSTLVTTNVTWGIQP
native or extracellular αVβ3, sequence (P05106 27-625 limits assumed, further chain): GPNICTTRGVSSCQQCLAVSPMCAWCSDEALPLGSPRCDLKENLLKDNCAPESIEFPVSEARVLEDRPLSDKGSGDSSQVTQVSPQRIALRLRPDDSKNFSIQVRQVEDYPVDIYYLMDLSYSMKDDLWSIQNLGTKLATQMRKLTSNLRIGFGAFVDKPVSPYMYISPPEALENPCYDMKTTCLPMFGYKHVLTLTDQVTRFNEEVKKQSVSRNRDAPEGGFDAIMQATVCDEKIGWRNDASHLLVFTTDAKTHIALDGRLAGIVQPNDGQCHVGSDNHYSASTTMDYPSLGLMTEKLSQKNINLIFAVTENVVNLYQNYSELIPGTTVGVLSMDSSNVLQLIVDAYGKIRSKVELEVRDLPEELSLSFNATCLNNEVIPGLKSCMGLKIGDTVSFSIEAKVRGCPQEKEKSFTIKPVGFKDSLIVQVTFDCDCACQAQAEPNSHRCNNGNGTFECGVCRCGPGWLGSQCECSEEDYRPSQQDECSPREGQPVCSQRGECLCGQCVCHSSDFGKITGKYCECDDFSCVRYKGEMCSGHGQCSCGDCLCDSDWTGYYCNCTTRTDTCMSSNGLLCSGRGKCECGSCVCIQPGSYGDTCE

Arg-Gly-Asp-(D-Phe)-(N-methyl-Val) [Cyclo(RGDf-N-Me-V), cyclic pentapeptide ligand of αVβ3, in clinical trials as an anti-angiogenic therapeutic]
IC50: 0.5 to 3 nM
